Measurements taken from patent US12525646B2, “Ionic cyclic nitroxyl radical oligomers” (Wisconsin Alumni Research Foundation, priority 2021, dated 2026).

How the values were obtained:
Assay type in all cases: physicochemical
[1] = Electrochemical impedance spectroscopy (PEIS), Z-fitting to ideal Randle equivalent circuit; conditions: PEIS Z-fit
[2] = Permeability through AMVN anion-exchange membrane; conditions: low ionic-conductivity AMVN membrane
From the text: Crossover of the TEMPO species is critical to RFB lifetime as it lowers the catholyte capacity through material loss and the anolyte capacity through chemical/electrochemical side reactions.

[3] = Viscosity of solutions versus volumetric capacity; conditions: compared with TMAP-TEMPO; reduced (uncharged) state
From the text: When determining the maximum cycling concentration with the water-miscible i-TEMPODs, the active molecule solubility no longer limits volumetric capacity as the interaction between the dissolved species and the water molecules are very thermodynamically favorable, and each TEMPO dimer is able to dissolve with a minimal amount of coordinated water. Instead, the cycling concentration will be limited by the electrolyte viscosity and its relation to pumping energy cost. The viscosity of representative TEMPO monomer and dimer solutions was experimentally measured at various volumetric capacities in their reduced (uncharged) states. FIG. 35A compares the viscosity of the i-TEMPODs to previously known TEMPO monomers, which are designated “OH”, “Nine”, and “TMAP”. Descriptions of these monomers can be found in: T. Liu, X. Wei, Z. Nie, V. Sprenkle, W. Wang, A Total Organic Aqueous Redox Flow Battery Employing a Low Cost and Sustainable Methyl Viologen Anolyte and 4-HO-TEMPO Catholyte. Adv. Energy Mater. 6 (2016); T. Janoschka, N. Martin, M. D. Hager, U. S. Schubert, An Aqueous Redox-Flow Battery with High Capacity and Power. The TEMPTMA/MV System. Angew. Chemie—Int. Ed. 55, 14427-14430 (2016); and Y. Liu, M. A. Goulet, L. Tong, Y. Liu, Y. Ji, L. Wu, R. G. Gordon, M. J. Aziz, Z. Yang, T. Xu, A Long-Lifetime All-Organic Aqueous Flow Battery Utilizing TMAP-TEMPO Radical. Chem. 5, 1861-1870 (2019). […]

`CC1(C)CC([N+](C)(C)C2CC(C)(C)N([O])C(C)(C)C2)CC(C)(C)N1[O]` [i-TEMPOD-1] gave a C1 [1] of 264.7 uF, a Rct [1] of 17.43 Ohm and a Ru [1] of 27.54 Ohm. The “crossover with the AMVN membrane” value [2] was “no detectible crossover” and the “viscosity at a given volumetric capacity” value [3] was “nearly equal viscosity”.
